Data as given in article PMC6445242, “Novel tetrazole and cyanamide derivatives as inhibitors of cyclooxygenase-2 enzyme: design, synthesis, anti-inflammatory evaluation, ulcerogenic liability and docking study” (Journal of Enzyme Inhibition and Medicinal Chemistry, 2017).
Marks after values point to notes of the source that are not given here.

Columns and labels:
[1] = test system: carrageenan-induced paw oedema; test: Carrageenan-induced rat paw oedema; assay type: in vivo; settings: 50 mg/kg oral; for %Inhibition of paw oedema, 1h / Paw thickness change mean ± SEM, 1h: 1 h after carrageenan; for Paw thickness change mean ± SEM, 1h / Paw thickness change mean ± SEM, 3h / Paw thickness change mean ± SEM, 5h: n = 4; for %Inhibition of paw oedema, 3h / Paw thickness change mean ± SEM, 3h: 3 h after carrageenan; for %Inhibition of paw oedema, 5h / Paw thickness change mean ± SEM, 5h: 5 h after carrageenan
Procedure: Female wister rats (150-200 g) were used in this study. The animals were kept at controlled conditions (temperature 23 ± 2 °C, humidity 60 ± 10%) and a 12/12-h light/dark cycle with access to food and water. All procedures relating to animal care and treatments were performed according to protocols approved by the Research Ethical Committee of Faculty of Pharmacy Beni-Suef University (2014-Beni-Suef, Egypt). The anti-inflammatory activity of the synthesised compounds was determined in vivo by […]-induced paw oedema method in rats[49]. Rats were divided into 21 groups of four animals each, and then, they were fasted overnight with free access to water before the experiment. Before any drug administration, thickness of the left hind paw of each rat was measured in millimetres. Group 1 served as a control and administered the vehicle (2.5% Tween 80).

ovine COX-2 = target: T1, ovine COX-2 (Ovis aries, UniProt P79208); test: In vitro COX-2 inhibition assay (EIA kit, Cayman); settings: for IC50: IC50 COX-2, ovine COX-2, mean of two determinations; for SI, COX-2 selectivity index (COX-1 IC50/COX-2 IC50): ovine enzymes
T1 sequence (P79208 17-603): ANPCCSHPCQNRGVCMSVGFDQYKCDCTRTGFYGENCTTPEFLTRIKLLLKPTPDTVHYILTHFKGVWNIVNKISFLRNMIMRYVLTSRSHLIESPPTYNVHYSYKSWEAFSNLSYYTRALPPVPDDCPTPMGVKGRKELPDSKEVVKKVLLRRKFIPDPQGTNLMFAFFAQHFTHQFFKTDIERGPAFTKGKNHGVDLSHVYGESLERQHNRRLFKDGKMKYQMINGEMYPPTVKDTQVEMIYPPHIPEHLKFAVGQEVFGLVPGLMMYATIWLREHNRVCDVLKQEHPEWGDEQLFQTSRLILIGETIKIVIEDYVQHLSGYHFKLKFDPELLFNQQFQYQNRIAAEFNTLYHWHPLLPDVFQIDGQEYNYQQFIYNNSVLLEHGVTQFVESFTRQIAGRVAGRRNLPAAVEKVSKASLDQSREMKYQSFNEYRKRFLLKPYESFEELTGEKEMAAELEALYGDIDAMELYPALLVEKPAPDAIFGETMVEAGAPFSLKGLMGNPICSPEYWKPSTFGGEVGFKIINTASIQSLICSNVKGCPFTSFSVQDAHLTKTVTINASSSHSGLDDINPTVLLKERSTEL
Procedure: (§1) The peroxidase activity of cyclooxygenase enzyme isoforms was measured using the COX activity assay kit. The ability of the test compounds to inhibit both ovine COX-1 and COX-2 enzymes was explored in vitro using a colorimetric enzyme immunoassay (EIA) kit. The appearance of oxidised N,N,N′,N′-tetramethyl-p-phenylenediamine (TMPD) was monitored at 590 nm. The kit includes isozyme-specific inhibitors for distinguishing COX-2 activity from that of COX-1.

ovine COX-1 = target: T2, ovine COX-1 (Ovis aries, UniProt P05979); test: In vitro COX-1 inhibition assay (EIA kit, Cayman)
T2 sequence (P05979 25-600): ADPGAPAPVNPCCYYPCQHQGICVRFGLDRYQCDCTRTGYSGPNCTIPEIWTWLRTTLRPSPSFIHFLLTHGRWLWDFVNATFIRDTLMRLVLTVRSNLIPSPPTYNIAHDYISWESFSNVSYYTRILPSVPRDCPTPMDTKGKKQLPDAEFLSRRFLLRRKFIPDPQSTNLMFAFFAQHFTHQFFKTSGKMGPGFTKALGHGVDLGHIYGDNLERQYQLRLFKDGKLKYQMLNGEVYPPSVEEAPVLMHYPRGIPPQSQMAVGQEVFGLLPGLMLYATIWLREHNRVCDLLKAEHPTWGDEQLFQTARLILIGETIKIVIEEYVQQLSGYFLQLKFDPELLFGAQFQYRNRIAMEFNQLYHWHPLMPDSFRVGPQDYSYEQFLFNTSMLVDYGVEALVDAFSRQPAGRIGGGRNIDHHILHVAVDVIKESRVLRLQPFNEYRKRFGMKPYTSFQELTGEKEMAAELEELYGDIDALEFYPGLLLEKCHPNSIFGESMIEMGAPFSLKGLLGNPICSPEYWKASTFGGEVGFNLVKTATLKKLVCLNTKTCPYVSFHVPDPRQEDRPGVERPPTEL
Procedure: as §1

[2] = test system: gastric mucosa (ulcer number, ulcer index); test: Ulcerogenic liability; assay type: in vivo, rat; settings: 50 mg/kg oral, three successive days, rats; for Ulcer index: sum of % incidence, average severity and average number of ulcers
Procedure: Female wister rats (150–200 g) were used in this study. The animals were kept at controlled conditions (temperature 23 ± 2 °C, humidity 60 ± 10%) and a 12/12-h light/dark cycle with access to food and water. All procedures relating to animal care and treatments were performed according to protocols approved by the Research Ethical Committee of Faculty of Pharmacy Beni-Suef University (2014-Beni-Suef, Egypt).
[…]. Forty-eight rats were used in this study, divided into 12 groups and fasted for 18 h before drug administration. The control group received the vehicle (2.5% Tween 80). Other groups received test compounds, celecoxib or indomethacin at a dose of 50 mg/kg, then animals were fed after 2 h. Rats were given the specified dose orally for three successive days. Rats were sacrificed after 2 h of the last dose, then the stomach of each rat was removed and opened along the greater curvature for determination of the ulcer number and ulcer index according to the reported method.

rat's gastric tissue = test: Histopathological investigation of stomach; assay type: in vivo; settings: haematoxylin and eosin, after ulcerogenic liability dosing
Procedure: Whole rats stomach were collected, selected stomach samples from each rat were fixed in 10% neutral buffered formalin for 48 h and routinely processed for paraffin embedding. 5 μm Thickness sections were obtained then stained with haematoxylin and eosin for histopathological evaluation.

IC50 (ovine COX-2) [nM] | SI, COX-2 selectivity index (COX-1 IC50/COX-2 IC50) (ovine COX-2) | IC50 (ovine COX-1) [nM] | melting point [°C] | SMILES | %Inhibition of paw oedema, 1h [1] [%] | Paw thickness change mean ± SEM, 1h [1] [mm] | %Inhibition of paw oedema, 3h [1] [%] | Paw thickness change mean ± SEM, 3h [1] [mm] | %Inhibition of paw oedema, 5h [1] [%] | Paw thickness change mean ± SEM, 5h [1] [mm] | Average number of ulcers [2] | Ulcer index [2] | Ulcer index ([2]; listed as indomethacin) | Histopathological findings in stomach (rat's gastric tissue)
260 | 13.26 | 3450 | 112 to 114 | COc1ccc(/C=C/C(=O)c2ccc(NC#N)cc2)cc1OC [Compound 7a, (ZE)-N-{4-[3–(3,4-Dimethoxyphenyl)acryloyl]phenyl}cyanamide] | 24 | 1.20 ± 0.11 | 22 | 1.30 ± 0.15 | 0 | 1.33 ± 0.08 |  |  |  | 
570 | 22 | 12500 | 214 to 216 | COc1ccc(/C=C/C(=O)c2ccc(-n3cnnn3)cc2)cc1OC [Compound 3a, (ZE)-1-[4-(1H-Tetrazol-1-yl)phenyl]-3-(3,4-dimethoxyphenyl)prop-2-en-1-one] | 25 |  | 9 | 1.53 ± 0.09 |  |  |  |  |  | 
240 | 14.66 | 3520 | 109 to 111 | COc1cc(/C=C/C(=O)c2ccc(NC#N)cc2)cc(OC)c1OC [Compound 7b, (ZE)-N-{4-[3–(3,4,5-Trimethoxyphenyl)acryloyl]phenyl}cyanamide] | 32 | 1.08 ± 0.11 | 43 | 0.95 ± 0.17 | 0 | 1.33 ± 0.08 |  |  |  | 
510 | 25.27 | 12900 | 255 to 257 | C/C(=N\Nc1ccc(S(N)(=O)=O)cc1)c1ccc(-n2cnnn2)cc1 [Compound 6b] |  | 0.80 ± 0.26 | 37 | 1.05 ± 0.09 | 12 | 1.18 ± 0.13 |  |  |  | 
430 | 14.48 | 6230 | 238 to 240 | N#Cc1c(-c2ccccc2)cc(-c2ccc(-n3cnnn3)cc2)nc1N [Compound 4a, 6-[4-(1H-Tetrazol-1-yl)phenyl]-2-amino-4-phenylnicotinonitrile] | 51 | 0.78 ± 0.08 | 10 | 1.50 ± 0.19 | 0 | 1.33 ± 0.05 |  |  |  | 
710 | 15.81 | 11200 | > 300 | COc1ccc(-c2cc(-c3ccc(-n4cnnn4)cc3)[nH]c(=O)c2C#N)cc1 [Compound 5c, 6-[4-(1H-Tetrazol-1-yl)phenyl]-4-(4-methoxyphenyl)-2-oxo-1,2-dihydropyridine-3-carbonitrile] | 57 | 0.68 ± 0.09 | 30 | 1.18 ± 0.11 | 14 | 1.15 ± 0.05 |  |  |  | 
1140 | 10.88 | 12400 | 287 to 289 | N#Cc1c(-c2cccnc2)cc(-c2ccc(-n3cnnn3)cc2)nc1O [Compound 5b, 6′-[4-(1H-Tetrazol-1-yl)phenyl]-2′-hydroxy-[3,4′-bipyridine]-3′-carbonitrile] | 38 | 0.98 ± 0.18 | 33 | 1.13 ± 0.15 | 17 | 1.10 ± 0.15 |  |  |  | 
380 | 24.23 | 9210 | 258 to 260 | C/C(=N\Nc1ccc(S(C)(=O)=O)cc1)c1ccc(-n2cnnn2)cc1 [Compound 6a, (ZE)-1-{4-[1-(2-(4-Methanesulphonylphenyl)hydrazono)ethyl]phe-nyl}-1H-tetrazole] | 30 | 1.10 ± 0.23 | 42 | 0.98 ± 0.23 | 4 | 1.28 ± 0.08 |  |  |  | 
240 | 28.08 | 6740 | 215 to 217 | COc1cc(/C=C/C(=O)c2ccc(-n3cnnn3)cc2)cc(OC)c1OC [Compound 3b, (ZE)-1-[4-(1H-Tetrazol-1-yl)phenyl]-3-(3,4,5-trimethoxyphenyl)prop-2-en-1-one] | 54 | 0.73 ± 0.08 | 13 | 1.45 ± 0.18 | 0 | 1.33 ± 0.08 |  |  |  | 
 |  |  |  | COc1ccc2c(c1)c(CC(=O)O)c(C)n2C(=O)c1ccc(Cl)cc1 [Indomethacin, reference compound] |  |  |  |  |  |  | 14.25*** | 22.50*** | 22.5 | Complete disruption of protective mucosal layer
270 | 22.62 | 6110 | 238 to 240 | N#Cc1c(-c2cccnc2)cc(-c2ccc(-n3cnnn3)cc2)nc1N [Compound 4b, 6′-[4-(1H-Tetrazol-1-yl)phenyl]-2′-amino-[3,4′-bipyridine]-3′-carbonitrile] | 19 | 1.28 ± 0.10 | 9 | 1.53 ± 0.08 | 4 | 1.28 ± 0.14 |  |  |  | 
